From EP1137645B1, “ALPHA-METHYLBENZYL-CONTAINING THIOUREA INHIBITORS OF HERPES VIRUSES CONTAINING A […] GROUP” (Wyeth, priority 1998, dated 2000)
≈ marks a conversion by molar mass, not a printed value. Read-outs that look alike come from different tables or passages of the source.

Assays:
[1] = system: HCMV recombinant mutant virus whose genome contains the prokaryotic beta-glucuronidase gene; test: microbe, parasite or virus in culture; type: cell-based, human cytomegalovirus; conditions: Human betaherpesvirus 5, Fibroblast
Outline: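 Antiviral IC50 estimated from reduced reporter activity across compound amounts: lysates prepared 96 h after infection were tested with p-nitrophenyl- or methylumbelliferyl-glucuronide. Cells were human foreskin fibroblasts, infected alongside inhibitor with HCMV (e.g. RV145) expressing viral promoter-driven beta-glucuronidase.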

HSV- I = test: HSV antiviral (ELISA) assay; type: cell-based; conditions: read-out: IC50 (ug/ml) HSV
Outline: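 IC50 from fluorescence versus untreated control in a cell ELISA: anti-glycoprotein D antibody, β-galactosidase-conjugated secondary, 4-methyl umbelliferone read at 365/450 nm. Vero cells (2% FBS DMEM) received compound 30 min pre-infection with HSV-1 at MOI 0.006, fixed ~24 h post-infection.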

VZV strain Ellen = test: VZV antiviral (ELISA) assay; type: cell-based
Outline: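 HFF cells infected with VZV Ellen at multiplicity below 0.1 overnight, then mixed infected/uninfected cells seeded with compound in DMEM/2% FBS and incubated three days at 37°C, 5% CO2.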

[2] = read-out: IC50 ug/ml HCMV, HCMV, human foreskin fibroblasts
[3] = Human alphaherpesvirus 3, HFF, read-out: % inhibition 10 ug/ml VZV
[4] = Human alphaherpesvirus 3, HFF, read-out: IC50 (ug/ml) VZV
[5] = Human alphaherpesvirus 3, read-out: % inhibition 10 ug/ml VZV, 10 ug/ml, VZV strain Ellen, HFF cells, ELISA
[6] = Human alphaherpesvirus 3, VZV strain Ellen, HFF cells, ELISA, read-out: IC50 (ug/ml) VZV

CCCCSc1ccc(NC(=S)Nc2ccc(NC(=O)c3ccccc3F)cc2)cc1Cl [Example 387, N-{4-[3-(4-Butylsulfanyl-3-chloro-phenyl)-thioureido]-phenyl}-2-fluoro-benzamide]
IC50 [1, 2]: > 10 µg/mL
IC50 (HSV- I; HSV- I, Vero cells, ELISA): > 10 µg/mL
inhibition at 10 µg/mL (VZV strain Ellen; [3]): 26%
IC50 (VZV strain Ellen; [4]): > 10 µg/mL

C[S+]([O-])c1ccc(NC(=S)Nc2ccc(NC(=O)c3c(F)cccc3F)cc2)cc1Cl (centres unmarked) [Example 392, N-{4-[3-(3-Chloro-4-methanesulfinyl-phenyl)-thioureido]-phenyl}-2,6-difluoro-benzamide]
IC50 [1, 2]: 0.5 µg/mL (≈ 1.04 µM)
IC50 (HSV- I; HSV- I, Vero cells, ELISA): > 10 µg/mL
inhibition at 10 µg/mL (VZV strain Ellen; [3]): 92%
IC50 (VZV strain Ellen; [4]): 2 µg/mL (≈ 4.17 µM)

CS(=O)(=O)c1ccc(NC(=S)Nc2ccc(NC(=O)c3c(F)cccc3F)cc2)cc1Cl [Example 393, N-{4-[3-(3-Chloro-4-methanesulfonyl-phenyl)-thioureido]-phenyl}-2,6-difluoro-benzamide]
IC50 [1, 2]: 0.5 µg/mL (≈ 1.01 µM)
IC50 (HSV- I; HSV- I, Vero cells, ELISA): > 10 µg/mL
inhibition at 10 µg/mL (VZV strain Ellen; [3]): 62%
IC50 (VZV strain Ellen; [4]): > 10 µg/mL

Cc1ccc(NC(=S)Nc2ccc(NC(=O)c3ccccc3F)c(C)c2)cc1Cl [Example 395, N-{4-[3-(3-Chloro-4-methyl-phenyl)-thioureido]-2-methyl-phenyl}-2-fluoro-benzamide]
IC50 [1, 2]: 3 µg/mL (≈ 7.01 µM)
IC50 (HSV- I; HSV- I, Vero cells, ELISA): 0.2 µg/mL (≈ 0.467 µM)
inhibition at 10 µg/mL (VZV strain Ellen; [3]): 64%
IC50 (VZV strain Ellen; [4]): > 10 µg/mL

CC(=O)Nc1ccc(NC(=S)Nc2ccc(NC(=O)c3ccccc3F)cc2)cc1Cl [Example 397, N-{4-[3-(4-Acetylamino-3-chloro-phenyl)-thioureido]-phenyl}-2-fluoro-benzamide]
IC50 [1, 2]: 10 µg/mL (≈ 21.9 µM)
IC50 (HSV- I; HSV- I, Vero cells, ELISA): 5 µg/mL (≈ 10.9 µM)
inhibition at 10 µg/mL (VZV strain Ellen; [3]): 35%
IC50 (VZV strain Ellen; [4]): > 10 µg/mL

CCOC(=O)Nc1ccc(NC(=S)Nc2ccc(NC(=O)c3ccccc3F)cc2)cc1Cl [Example 399, (2-Chloro-4-{3-[4-(2-fluoro-benzoylamino)-phenyl]-thioureido}-phenyl)-carbamic acid ethyl ester]
IC50 [1, 2]: 1.5 µg/mL (≈ 3.08 µM)
IC50 (HSV- I; Vero): > 10 µg/mL
inhibition at 10 µg/mL (VZV strain Ellen; [3]): 59%
IC50 (VZV strain Ellen; Human alphaherpesvirus 3, HFF, read-out: IC50 (ug/ml) VZV, VZV strain Ellen, HFF cells, ELISA): > 10 µg/mL

Nc1ccc(NC(=S)Nc2ccc(NC(=O)c3ccccc3F)cc2)cc1Cl [Example 404, N-{4-[3-(4-Amino-3-chloro-phenyl)-thioureido]-phenyl}-2-fluoro-benzamide]
IC50 [1, 2]: 8 µg/mL (≈ 19.3 µM)
IC50 (HSV- I; HSV- I, Vero cells, ELISA): 0.4 µg/mL (≈ 0.964 µM)
inhibition at 10 µg/mL (VZV strain Ellen; [3]): 15%
IC50 (VZV strain Ellen; [4]): > 10 µg/mL

O=C(CN1CCSCC1)Nc1ccc(NC(=S)Nc2ccc(NC(=O)c3ccccc3F)cc2)cc1Cl [Example 407, N-(4-{3-[3-Chloro-4-(2-thiomorpholin-4-yl-acetylamino)-phenyl]-thioureido}-phenyl)-2-fluoro-benzamide]
IC50 [1, 2]: > 10 µg/mL
IC50 (HSV- I; HSV- I, Vero cells, ELISA): 4 µg/mL (≈ 7.17 µM)
inhibition at 10 µg/mL (VZV strain Ellen; [3]): 87%
IC50 (VZV strain Ellen; [4]): 0.7 µg/mL (≈ 1.25 µM)

CCN(CC)CC(=O)Nc1ccc(NC(=S)Nc2ccc(NC(=O)c3ccccc3F)cc2)cc1Cl [Example 414, N-(4-{3-[3-Chloro-4-(2-diethylamino-acetylamino)-phenyl]-thioureido}-phenyl)-2-fluoro-benzamide]
IC50 [1, 2]: > 10 µg/mL
IC50 (HSV- I; HSV- I, Vero cells, ELISA): 6 µg/mL (≈ 11.4 µM)
inhibition at 10 µg/mL (VZV strain Ellen; [3]): 70%
IC50 (VZV strain Ellen; [4]): > 15 µg/mL

O=C(CN1CCCC1)Nc1ccc(NC(=S)Nc2ccc(NC(=O)c3ccccc3F)cc2)cc1Cl [Example 417, N-(4-{3-[3-Chloro-4-(2-pyrrolidin-1-yl-acetylamino)-phenyl]-thioureido}-phenyl)-2-fluoro-benzamide]
IC50 [1, 2]: > 10 µg/mL
IC50 (HSV- I; HSV- I, Vero cells, ELISA): 6 µg/mL (≈ 11.4 µM)
inhibition at 10 µg/mL (VZV strain Ellen; [3]): 15%
IC50 (VZV strain Ellen; [4]): > 10 µg/mL

O=C(CN1CCCCCC1)Nc1ccc(NC(=S)Nc2ccc(NC(=O)c3ccccc3F)cc2)cc1Cl [Example 423, N-(4-{3-[4-(2-Azepan-1-yl-acetylamino)-3-chloro-phenyl]-thioureido}-phenyl)-2-fluoro-benzamide]
IC50 [1, 2]: 1 µg/mL (≈ 1.8 µM)
IC50 (HSV- I; HSV- I, Vero cells, ELISA): 4 µg/mL (≈ 7.22 µM)
inhibition at 10 µg/mL (VZV strain Ellen; [3]): 87%
IC50 (VZV strain Ellen; [4]): 0.9 µg/mL (≈ 1.62 µM)

CC1CCCCN1CC(=O)Nc1ccc(NC(=S)Nc2ccc(NC(=O)c3ccccc3F)cc2)cc1Cl (centres unmarked) [Example 425, N-[4-(3-{3-Chloro-4-[2-(2-methyl-piperidin-1-yl)-acetylamino]-phenyl}-thioureido)-phenyl]-2-fluoro-benzamide]
IC50 [1, 2]: 0.5 µg/mL (≈ 0.902 µM)
IC50 (HSV- I; Vero): 3 µg/mL (≈ 5.41 µM)
inhibition at 10 µg/mL (VZV strain Ellen; [3]): 103%
IC50 (VZV strain Ellen; [4]): > 7.5 µg/mL

Cc1cccc(NC(=S)Nc2ccc(NC(=O)c3ccccc3F)cc2)c1 [Example 432, 2-Fluoro-N-[4-(3-m-tolyl-thioureido)-phenyl]-benzamide]
IC50 ([1]; read-out: IC50 ug/ml HCMV): 10 µg/mL (≈ 26.4 µM)
IC50 (HSV- I; HSV- I, Vero cells, ELISA): 1.6 µg/mL (≈ 4.22 µM)
inhibition at 10 µg/mL (VZV strain Ellen; [5]): 0%
IC50 (VZV strain Ellen; [6]): > 10 µg/mL

O=C(Nc1ccc(NC(=S)Nc2cccc(C(F)(F)F)c2)cc1)c1ccccc1F [Example 433, 2-Fluoro-N-{4-[3-(3-trifluoromethyl-phenyl)-thioureido]-phenyl}-benzamide]
IC50 ([1]; read-out: IC50 ug/ml HCMV): > 10 µg/mL
IC50 (HSV- I; HSV- I, Vero cells, ELISA): > 10 µg/mL
inhibition at 10 µg/mL (VZV strain Ellen; [5]): 0%
IC50 (VZV strain Ellen; [6]): > 10 µg/mL

Nc1cccc(NC(=S)Nc2ccc(NC(=O)c3ccccc3F)cc2)c1 [Example 434, N-{4-[3-(3-Amino-phenyl)-thioureido]-phenyl}-2-fluoro-benzamide]
IC50 ([1]; read-out: IC50 ug/ml HCMV): 5 µg/mL (≈ 13.1 µM)
IC50 (HSV- I; HSV- I, Vero cells, ELISA): 10 µg/mL (≈ 26.3 µM)
inhibition at 10 µg/mL (VZV strain Ellen; [5]): 0%
IC50 (VZV strain Ellen; [6]): > 10 µg/mL

Nc1ccc(Cl)cc1NC(=S)Nc1ccc(NC(=O)c2ccccc2F)cc1 [Example 437, N-{4-[3-(2-Amino-5-chloro-phenyl)-thioureido]-phenyl}-2-fluoro-benzamide]
IC50 [1, 2]: > 10 µg/mL
IC50 (HSV- I; Vero): 0.05 µg/mL (≈ 0.121 µM)
inhibition at 10 µg/mL (VZV strain Ellen; [3]): 0%
IC50 (VZV strain Ellen; [4]): 8 µg/mL (≈ 19.3 µM)

Nc1cc(Cl)cc(NC(=S)Nc2ccc(NC(=O)c3ccccc3F)cc2)c1 [Example 442, N-{4-[3-(3-Amino-5-chloro-phenyl)-thioureido]-phenyl}-2-fluoro-benzamide]
IC50 [1, 2]: 2 µg/mL (≈ 4.82 µM)
IC50 (HSV- I; HSV- I, Vero cells, ELISA): 1 µg/mL (≈ 2.41 µM)
inhibition at 10 µg/mL (VZV strain Ellen; [3]): 81%
IC50 (VZV strain Ellen; [4]): 8 µg/mL (≈ 19.3 µM)

CC(O)c1cccc(NC(=S)Nc2ccc(NC(=O)c3ccccc3F)cc2)c1 (centres unmarked) [Example 448, 2-Fluoro-N-(4-{3-[3-(1-hydroxy-ethyl)-phenyl]-thioureido}-phenyl)-benzamide]
IC50 ([1]; read-out: IC50 ug/ml HCMV): 9 µg/mL (≈ 22 µM)
IC50 (HSV- I; HSV- I, Vero cells, ELISA): > 10 µg/mL
inhibition at 10 µg/mL (VZV strain Ellen; [5]): 0%
IC50 (VZV strain Ellen; [6]): > 10 µg/mL

CC(C)c1cccc(NC(=S)Nc2ccc(NC(=O)c3ccccc3F)cc2)c1 [Example 452, 2-Fluoro-N-{4-[3-(3-isopropyl-phenyl)-thioureido]-phenyl}-benzamide]
IC50 [1, 2]: 2 µg/mL (≈ 4.91 µM)
IC50 (HSV- I; HSV- I, Vero cells, ELISA): 4 µg/mL (≈ 9.82 µM)
inhibition at 10 µg/mL (VZV strain Ellen; [3]): 75%
IC50 (VZV strain Ellen; [4]): 1 µg/mL (≈ 2.45 µM)

CN(C)c1cccc(NC(=S)Nc2ccc(NC(=O)c3ccccc3F)cc2)c1 [Example 454, N-{4-[3-(3-Dimethylamino-phenyl)-thioureido]-phenyl}-2-fluoro-benzamide]
IC50 [1, 2]: 4 µg/mL (≈ 9.79 µM)
IC50 (HSV- I; HSV- I, Vero cells, ELISA): 1.5 µg/mL (≈ 3.67 µM)
inhibition at 10 µg/mL (VZV strain Ellen; [3]): 55%
IC50 (VZV strain Ellen; [4]): > 10 µg/mL

COc1cc(C)c(Cl)cc1NC(=S)Nc1ccc(NC(=O)c2ccccc2F)cc1Cl [Example 458, N-{3-Chloro-4-[3-(5-chloro-2-methoxy-4-methyl-phenyl)-thioureido]-phenyl}-2-fluoro-benzamide]
IC50 [1, 2]: > 10 µg/mL
IC50 (HSV- I; HSV- I, Vero cells, ELISA): 0.06 µg/mL (≈ 0.125 µM)
inhibition at 10 µg/mL (VZV strain Ellen; [3]): 25%
IC50 (VZV strain Ellen; [4]): > 10 µg/mL

Cc1ccc(NC(=S)Nc2ccc(NC(=O)c3ccccc3F)cc2Cl)cc1Cl [Example 459, N-{3-Chloro-4-[3-(3-chloro-4-methyl-phenyl)-thioureido]-phenyl}-2-fluoro-benzamide]
IC50 [1, 2]: > 10 µg/mL
IC50 (HSV- I; HSV- I, Vero cells, ELISA): 0.12 µg/mL (≈ 0.268 µM)
inhibition at 10 µg/mL (VZV strain Ellen; [3]): 25%
IC50 (VZV strain Ellen; [4]): > 10 µg/mL

CSc1ccc(NC(=S)Nc2ccc(NC(=O)c3ccccc3F)cc2Cl)cc1Cl [Example 460, N-{3-Chloro-4-[3-(3-chloro-4-methylsulfanyl-phenyl)-thioureido]-phenyl}-2-fluoro-benzamide]
IC50 [1, 2]: 2 µg/mL (≈ 4.16 µM)
IC50 (HSV- I; HSV- I, Vero cells, ELISA): 0.09 µg/mL (≈ 0.187 µM)
inhibition at 10 µg/mL (VZV strain Ellen; [3]): 50%
IC50 (VZV strain Ellen; [4]): > 10 µg/mL
